Data as given in patent US20240238425A1, “HSD17B13 Inhibitors and/or Degraders” (Pfizer Inc., priority 2022, published 2024).
Structures can show the parent of a compound that is named as a salt.

Tested on: HiBiT-HSD17β13 fusion protein (N-terminal HiBiT-tagged HSD17β13 isoform D) in Huh7 HiBiT-HSD17β13 OE cells
Test: Whole-cell Huh7-HSD17B13 HiBiT assay (degrader potency and maximal efficacy, luminescence readout)
Format: cell-based, human
Settings: 24 hour incubation, geometric mean, * = geometric mean for all forms tested (parent and salt forms); for DC50: read-out: Huh7_HIBIT-HSD17β13_DC50 GMean DC50; for Huh7_HIBIT-HSD17β13_DC50 GMean Asymptote Maximum: max. concentration 1 μM
Summary of the method: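 Luminescence from lytic HiBiT detection tracked residual HiBiT-HSD17β13 (isoform D, N-terminal tag) in a stable Huh7 overexpressing clone after 24 h compound treatment at 37° C, 11 concentrations up to 1 μM final. Percent effect used DMSO (zero) and parental Huh7 (high) wells; four-parameter fit gave 50% degradation; viability checked by CellTiter-Glo.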

| SMILES | DC50 | Huh7_HIBIT-HSD17β13_DC50 GMean Asymptote Maximum |
| --- | --- | --- |
| Cc1ccc(C(=O)N2CCC3(CCC(N4CCN(c5ccc6cn([C@H]7CC[C@H](CNC(=O)c8cc(F)c(O)c(F)c8)CC7)nc6c5)CC4)CC3)CC2)cc1N1CCC(=O)NC1=O [Example 109, N-({(1r,4r)-4-[6-(4-{3-[3-(2,4-dioxo-1,3-diazinan-1-yl)-4-methylbenzoyl]-3-azaspiro[5.5]undecan-9-yl}piperazin-1-yl)-2H-indazol-2-yl]cyclohexyl}methyl)-3,5-difluoro-4-hydroxybenzamide] | 1.1 nM | 81% |
| Cc1ccc(C(=O)N2CCC3(CCC(N4CCN(c5ccc6cn([C@H]7CC[C@H](CNC(=O)c8cc(F)c(O)c(F)c8F)CC7)nc6c5)CC4)CC3)CC2)cc1N1CCC(=O)NC1=O [Example 111, N-({(1r,4r)-4-[6-(4-{3-[3-(2,4-dioxo-1,3-diazinan-1-yl)-4-methylbenzoyl]-3-azaspiro[5.5]undecan-9-yl}piperazin-1-yl)-2H-indazol-2-yl]cyclohexyl}methyl)-2,3,5-trifluoro-4-hydroxybenzamide, trifluoroacetate salt] | 0.85 nM | 80% |
| Cc1ccc(C(=O)N2CCC3(CCC(n4cc(-c5ccc6cn([C@H]7CC[C@H](CNC(=O)c8cc(F)c(O)c(F)c8F)CC7)nc6c5)cn4)CC3)CC2)cc1N1CCC(=O)NC1=O [Example 112, N-({(1r,4r)-4-[6-(1-{3-[3-(2,4-dioxo-1,3-diazinan-1-yl)-4-methylbenzoyl]-3-azaspiro[5.5]undecan-9-yl}-1H-pyrazol-4-yl)-2H-indazol-2-yl]cyclohexyl}methyl)-2,3,5-trifluoro-4-hydroxybenzamide, formate salt] | 0.97 nM | 81% |
| O=C1CCN(c2cnn3cc(CCCN4Cc5ccc(-c6ccc7cn([C@H]8CC[C@H](CNC(=O)c9cc(F)c(O)c(F)c9F)CC8)nc7c6)cc5C4)ccc23)C(=O)N1 [Example 131, N-({(1r,4r)-4-[6-(2-{3-[3-(2,4-dioxo-1,3-diazinan-1-yl)pyrazolo[1,5-a]pyridin-6-yl]propyl}-2,3-dihydro-1H-isoindol-5-yl)-2H-indazol-2-yl]cyclohexyl}methyl)-2,3,5-trifluoro-4-hydroxybenzamide, trifluoroacetate salt] | 0.87 nM | 78% |

More lines, in order of falling DC50, values ahead:

| DC50 | SMILES | Huh7_HIBIT-HSD17β13_DC50 GMean Asymptote Maximum |
| --- | --- | --- |
| 2.9 nM | O=C1CCN(c2cc(C(=O)N3CCC4(CCC(N5CCN(c6ccc7cn([C@H]8CC[C@H](CNC(=O)c9cc(F)c(O)c(F)c9)CC8)nc7c6)CC5)CC4)CC3)ccc2Cl)C(=O)N1 [Example 110, N-({(1r,4r)-4-[6-(4-{3-[4-chloro-3-(2,4-dioxo-1,3-diazinan-1-yl)benzoyl]-3-azaspiro[5.5]undecan-9-yl}piperazin-1-yl)-2H-indazol-2-yl]cyclohexyl}methyl)-3,5-difluoro-4-hydroxybenzamide] | 77% |
| 2.6 nM | Cc1ccc(C(=O)N2CCC(CN3CCN(c4ncc(-c5ccc6cn(C78CCC(CNC(=O)c9cc(F)c(O)c(F)c9F)(CC7)CC8)nc6c5)cn4)CC3)CC2)cc1N1CCC(=O)NC1=O [Example 114, N-{[4-(6-{2-[4-({1-[3-(2,4-dioxo-1,3-diazinan-1-yl)-4-methylbenzoyl]piperidin-4-yl}methyl)piperazin-1-yl]pyrimidin-5-yl}-2H-indazol-2-yl)bicyclo[2.2.2]octan-1-yl]methyl}-2,3,5-trifluoro-4-hydroxybenzamide] | 77% |
| 2.1 nM | Cn1nc(N2CCC(=O)NC2=O)c2ccc(CCCN3CCN(c4nccc(-c5nc([C@]67CC[C@](CNC(=O)c8cc(F)c(O)c(F)c8F)(CC6)CC7)no5)n4)CC3)cc21 [Example 133, N-[(4-{5-[2-(4-{3-[3-(2,4-dioxo-1,3-diazinan-1-yl)-1-methyl-1H-indazol-6-yl]propyl}piperazin-1-yl)pyrimidin-4-yl]-1,2,4-oxadiazol-3-yl}bicyclo[2.2.2]octan-1-yl)methyl]-2,3,5-trifluoro-4-hydroxybenzamide, trifluoroacetate salt] | 73% |
| 1.4 nM | Cc1ccc(C(=O)N2CCC3(CCC(N4CCN(c5ccc6cn([C@H]7CC[C@H](CNC(=O)c8cc(F)c(O)c(F)c8F)CC7)nc6c5)CC4)C3)CC2)cc1N1CCC(=O)NC1=O (stereo partly drawn) [Example 113, N-({(1r,4r)-4-[6-(4-{8-[3-(2,4-dioxo-1,3-diazinan-1-yl)-4-methylbenzoyl]-8-azaspiro[4.5]decan-2-yl}piperazin-1-yl)-2H-indazol-2-yl]cyclohexyl}methyl)-2,3,5-trifluoro-4-hydroxybenzamide, formate salt] | 79% |
| 1.3 nM | O=C1CCN(c2cc(C(=O)N3CCN(CC4CCN(c5ncc(-c6ccc7cn([C@H]8CC[C@H](CNC(=O)c9cc(F)c(O)c(F)c9F)CC8)nc7c6)cn5)CC4)CC3)ccc2Cl)C(=O)N1 [Example 108, N-{[(1r,4r)-4-(6-{2-[4-({4-[4-chloro-3-(2,4-dioxo-1,3-diazinan-1-yl)benzoyl]piperazin-1-yl}methyl)piperidin-1-yl]pyrimidin-5-yl}-2H-indazol-2-yl)cyclohexyl]methyl}-2,3,5-trifluoro-4-hydroxybenzamide] | 80% |
